Each structure is given as a SMILES string.

In this test the target is T1, Estrogen receptor (Homo sapiens, UniProt P03372).
T1 sequence (P03372 whole entry): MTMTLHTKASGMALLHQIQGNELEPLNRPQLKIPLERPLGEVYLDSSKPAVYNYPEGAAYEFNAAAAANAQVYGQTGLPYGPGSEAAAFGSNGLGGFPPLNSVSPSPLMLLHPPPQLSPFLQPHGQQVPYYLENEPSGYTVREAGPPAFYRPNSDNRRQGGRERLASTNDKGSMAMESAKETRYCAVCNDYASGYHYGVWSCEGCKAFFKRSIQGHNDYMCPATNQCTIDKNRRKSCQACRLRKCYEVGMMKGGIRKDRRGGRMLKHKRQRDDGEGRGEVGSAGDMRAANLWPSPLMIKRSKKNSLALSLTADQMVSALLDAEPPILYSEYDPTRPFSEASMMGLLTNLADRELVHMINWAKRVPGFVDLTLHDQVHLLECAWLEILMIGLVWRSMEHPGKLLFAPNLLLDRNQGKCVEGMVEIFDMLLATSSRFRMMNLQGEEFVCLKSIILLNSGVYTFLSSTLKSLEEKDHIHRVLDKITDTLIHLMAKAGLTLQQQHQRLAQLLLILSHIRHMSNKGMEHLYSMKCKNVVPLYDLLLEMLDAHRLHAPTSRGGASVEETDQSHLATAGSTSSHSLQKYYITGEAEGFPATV
Briefly: ERα coactivator recruitment enhancers – biochemical, TR-FRET, ERα LBD, dose response (AID 737). A general note: Time-resolved FRET reads energy transfer from a long-lived donor to a nearby acceptor.
Usually EC50 stands for the midpoint of the concentration-response curve. Regarding `Cc1ccc(-c2n[nH]c(=S)n2NC=CCc2ccccc2[N+](=O)[O-])cc1`, the concentration for a half-maximal effect (EC50) amounted to 6.52 µM. Regarding `CCOc1ccccc1C1c2c(-c3ccccc3)noc2N=C(N)C1C#N` (stereo unspecified) [6-amino-4-(2-ethoxyphenyl)-3-phenyl-2,4-dihydroisoxazolo[5,4-b]pyridine-5-carbonitrile], the EC50 came to 17.5 µM. Regarding `CCn1c(=NC(=O)c2ccc(-n3c(O)ccc3O)cc2)sc2c(OC)ccc(OC)c21` [4-[2,5-bis(oxidanylidene)pyrrolidin-1-yl]-N-(3-ethyl-4,7-dimethoxy-1,3-benzothiazol-2-ylidene)benzamide], the EC50 was found to be 7.94 µM. As for `CCOc1ccc(Cc2sc(Nc3ccccn3)nc2O)cc1` [5-(4-Ethoxy-benzyl)-2-[(Z)-pyridin-2-ylimino]-thiazolidin-4-one], the figure is 25.1 µM; as for `O=C1c2ccccc2C(=O)C1c1ccnc2ccccc12` [2-(1H-quinolin-4-ylidene)indane-1,3-quinone], 6.74 µM; as for `CCc1[nH]nc2c1C(c1cccc(OC(=O)N3CCOCC3)c1)C(C#N)C(=N)O2` (stereo unspecified) [3-(6-amino-5-cyano-3-ethyl-1,4-dihydropyrano[2,3-c]pyrazol-4-yl)phenyl morpholine-4-carboxylate], 6.39 µM.

(Values after BindingDB's records for doi:10.7270/Q2F47MJ9 (Emory University, 2007).)
